Laboratory results published in patent US20120232003A1, “COMPOSITIONS AND METHODS FOR DIABETES TREATMENT” (priority 2009, published 2012).

Legend:
[1] = tested on: male C57BL6 DIO mice; assay: Oral glucose tolerance test, blood glucose levels (Example 2); assay type: in vivo
Description: In this experiment, male C57BL6 DIO mice (10-11 weeks old, n=52) were used and maintained on a high fat diet. A total of 49 animals were used in this study. […] The mice were randomized to achieve similar body weight and glucose for each group before dosing. All animals were subjected to fasting at the start of the dark period (Groups 1-7). Food was removed, and bedding materials were replaced with fresh bedding to eliminate any residual food. Animals remained under fast until the 120 minute time point was taken. Water was made available ad libitum throughout the study. A 30 mg/mL stock solution of melatonin (30 mg melatonin in 1 ml of pure sesame oil) was made. From this stock solution, 10 μL of stock was taken and diluted with 990 μL of sesame oil, resulting in a solution concentration of 300 μg/ml. This was then diluted 1:18, resulting in a final concentration of 16.6-16.7 μg/mL. The doses of melatonin were adjusted based on the weight of the mouse. […] Blood glucose levels were measured by standard methods. […] Blood glucose level of all animals in Groups 1-7 were measured at time 0 (right before the glucose dosing), 15, 30, 60 and 120 minutes post glucose dosing (5 time points). Body weight was recorded twice per week prior to the study, and before the blood glucose level measurements. […]

[2] = tested on: male lean C57BL6 mice; assay: Insulin levels post glucose dosing by ELISA (Example 1); assay type: in vivo; conditions: 5 μg/mouse, oral glucose 3 g/kg
Description: (§1) In this experiment, male lean C57BL6 mice were used. […] The mice were randomized to achieve similar body weight and glucose for each group before dosing. All animals were subjected to fasting at the start of the dark period (Group 1-4). Food was removed, and bedding materials were replaced with fresh bedding to eliminate any residual food. Animals remained under fast until the 120 minute time point was taken. Water was made available ad libitum throughout the study. A 30 mg/mL stock solution of melatonin (30 mg melatonin in 1 ml of pure sesame oil) was made. From this stock solution, 10 μL of stock was taken and diluted with 990 μL of sesame oil, resulting in a solution concentration of 300 μg/ml. This was then diluted 1:18, resulting in a final concentration of 16.6-16.7 μg/mL. Mice received 0.3 ml by subcutaneous injection (5 μg/mouse). […] Insulin and blood glucose levels were measured by standard methods. The oral glucose tolerance test was carried out as follows using a glucose oxidase reaction measured by a Precision glucometer. […] Blood glucose level of all animals in Group 1-4 were measured at time 0 (right before the glucose dosing), 5, 10, 20, 30, 60 and 120 minutes post glucose dosing (7 time points). Insulin levels were also measured at 0, 30, 60, and 120 minutes from separate collections of tail vein blood obtained post glucose dosing by Crystal Chemistry ELISA.

[3] = tested on: male lean C57BL6 mice; assay: Oral glucose tolerance test, blood glucose levels (Example 1); assay type: in vivo; conditions: 5 μg/mouse, oral glucose 3 g/kg
Description: as §1

[4] = tested on: mouse C2C12 skeletal muscle cells; conditions: cited from earlier work
[5] = tested on: rat insulinoma cells (INS1); conditions: cited from earlier work
[6] = tested on: rat model of diabetes; conditions: cited from earlier work
[7] = cells exposed to melatonin and GLP-1 at the same time
[8] = overnight pretreatment with melatonin

| SMILES | blood glucose levels ([1]; sitagliptin 10 mg/kg alone, PO -1 h, FIG. 2B) | insulin levels ([2]; 1-hour melatonin dose, SC -1 h, FIG. 1D) | insulin levels compared to vehicle alone ([2]; 12-hour melatonin dose, SC -12 h, FIG. 1B) | glucose levels compared to vehicle alone ([3]; 1-hour melatonin dose, SC -1 h, FIG. 1C) | blood glucose levels compared to vehicle alone ([3]; 12-hour sustained melatonin dose, SC -12 h, FIG. 1A) | glucose transport [4] | effect on the anti-diabetic action of sitagliptin ([1]; 12-hour melatonin dose SC with sitagliptin 10 mg/kg PO) | GLP-1 induced gene expression [5, 7] | GLP-1 induced insulin secretion [5, 7] | cAMP-response element-mediated gene expression in response to GLP-1 or forskolin [5, 8] | insulin secretion in response to GLP-1 or forskolin [5, 8] | insulin-promoter-driven luciferase gene expression in response to GLP-1 or forskolin [5, 8] | blood glucose levels [6] | protection against hyperglycemia-induced oxidative damage [6] |
| --- | --- | --- | --- | --- | --- | --- | --- | --- | --- | --- | --- | --- | --- | --- |
| N[C@@H](CC(=O)N1CCn2c(nnc2C(F)(F)F)C1)Cc1cc(F)c(F)cc1F [Sitagliptin] | decrease | – | – | – | – | – | – | – | – | – | – | – | – | – |
| COc1ccc2[nH]cc(CCNC(C)=O)c2c1 [melatonin, N-acetyl-5-methoxyindole-3-ethaneamine] | – | lower | much higher | not appreciably different | significantly decreased | stimulates | does not inhibit | antagonized | antagonized | marked increase | marked increase | marked increase | without affecting | limited protection |
